# Laboratory results: PMC9227781, “Inhibitors of O-Acetylserine Sulfhydrylase with a Cyclopropane-Carboxylic Acid Scaffold Are Effective Colistin Adjuvants in Gram Negative Bacteria” (Pharmaceuticals, 2022)
# Experiments:
# StOASS-A = biological target: T1, StOASS-A (Salmonella typhimurium, UniProt P0A1E3); assay: Fluorescence binding assay on purified recombinant StOASS-A; set-up: species or system S. Typhimurium; conditions: 20 °C, 100 mM HEPES, 5% DMSO, pH 7.0, racemic mixture, esters tested up to 100 μM
# T1 construct: His-tag (with TEV site) (cleaved yes); made in house; host or cells: E. coli Rosetta (DE3)
# Experimental: (§1) The affinity of the compounds for StOASS-A and StOASS-B was determined on the purified recombinant proteins by an in vitro fluorescence binding assay. Measurements were carried out at 20 °C in a 3 mm pathlength quartz microcuvette in 100 mM HEPES, 5% DMSO (Applichem, Darmstadt, Germany), pH 7.0, using a Fluoromax-4 (Horiba Jobin-Yvon, Kyoto, Japan) spectrofluorometer. Emission spectra of solutions containing 0.2–1.0 μM StOASS, upon excitation of the pyridoxal 5′-phosphate cofactor at 412 nm, in the presence of increasing concentrations of compounds were collected; fluorescence intensities at 500 nm were plotted to compound concentration and data were fitted to a binding isotherm: I=I0+ΔI·compound/KD+compound where I is the fluorescence emission intensity at 500 nm in the presence of a given concentration of compound, I0 is the initial fluorescence emission in the absence of ligands, ΔI is the amplitude of the fluorescence emission change and KD is the dissociation constant. When the KD was lower than the protein concentration, data were fitted to the quadratic equation: I=I0+ΔI·OASS+compound+KD−OASS+compound+KD^2−4·OASS·compound/2
# (§2) Data were collected in duplicate.
# (§3) Esters were tested up to a concentration of 100 μM and no binding was observed.
# StOASS-B = biological target: T2, StOASS-B (Salmonella typhimurium, UniProt P29848); assay: Fluorescence binding assay on purified recombinant StOASS-B
# T2 construct: His-tag (with TEV site) (cleaved yes); made in house; host or cells: E. coli Rosetta (DE3)
# T2 sequence (P29848 1-303): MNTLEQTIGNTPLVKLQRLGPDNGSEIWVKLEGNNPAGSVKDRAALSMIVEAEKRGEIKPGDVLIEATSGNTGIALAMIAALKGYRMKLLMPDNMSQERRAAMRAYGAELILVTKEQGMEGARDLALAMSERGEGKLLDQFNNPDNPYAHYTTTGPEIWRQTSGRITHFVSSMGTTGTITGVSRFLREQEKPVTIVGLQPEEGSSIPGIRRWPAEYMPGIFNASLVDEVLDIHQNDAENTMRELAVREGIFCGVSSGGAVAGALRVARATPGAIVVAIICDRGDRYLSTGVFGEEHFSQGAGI
# Experimental: as §1, §2, §3
# MDBK cells = assay: Cytotoxicity assay (MTT) on MDBK cells; assay type: cell-based, bovine; conditions: 32, 16, 8 µg/mL; MTT test
# Experimental: The cytotoxicity assay was performed using the 3-(4,5-dimethylthiazol-2-yl)-2,5-diphenyltetrazolium bromide (MTT) test, following the procedure used by Donofrio et al.. MDBK cells were cultured on microtiter tissue culture plates in DMEM medium for 24 h at 37 °C in the presence of 5% CO2. After incubation, when the cell monolayer was at confluence, an aliquot of 1 µL of UPAR415 in DMSO at different concentrations was added in each well, containing a volume of 100 µL of DMEM medium and MDBK cells, and then the plates were reincubated at the same conditions. After incubation, 10 µL of MTT at 200 mg/mL (3-(4,5-dimethylthiazol-2-yl)-2,5-diphenyltetrazolium bromide) was added to each well and incubated at 37 °C for 6 h. At the end of the incubation, 100 µL of the solubilization solution (10% SDS in 0.01 M HCl) was added to each well and then incubated overnight. The MTT compound, a yellow tetrazolium salt, is reduced by mitochondrial enzymes (succinate dehydrogenase) of metabolically active eukaryotic cells to insoluble formazan crystals. In the presence of metabolically active cells, after the addition of a detergent solution (10% SDS in […]) that allows the formazan to be released from the cells, a violet color is seen in the medium. Instead, in the presence of non-viable cells, MTT is not reduced to formazan and therefore the solution will remain yellow.
# After incubation, plates were read with a spectrophotometer at 620 nm. Positive controls (PC)—without any compounds—and PCs with 1% DMSO were performed for each plate and three replicates for two independent experiments were performed for each assay.
# S. Typhimurium ATCC14028 = assay: Checkerboard assay with colistin, S. Typhimurium; assay type: cell-based, Salmonella enterica serovar Typhimurium; conditions: for MIC: Salmonella enterica, colistin in combination with compound at 8 μg/mL; for fold reduction with respect to the MIC of colistin alone, S. Typhimurium: compound at 8 µg/mL
# Experimental: (§4) Antimicrobial activity of associations between the different compounds and colistin (Sigma-Aldrich, St. Louis, MO, USA, lot n. 049M-4836 V) was tested with checkerboard assay with minor modifications, as mentioned in the previous work. For each assay, three experiments with three replicates each were assessed. For each compound tested concentration, 96-wells microtiter U-plates were prepared with twofold serial dilutions of colistin in MHB starting from the MIC value (µg/mL) for ten consecutive dilutions in 50 µL of broth. In each well of the same replicate, 1 µL of each compound in DMSO was added at a fixed concentration, 100 times higher than the final desired concentration (3.2; 1.6; 0.8 mg/mL). Subsequently, 49 µL of the bacterial suspension at a concentration of 10^6 CFU/mL, adjusted spectrophotometrically as reported above, was added to each well, reaching the final bacterial concentration of 5 × 10^5 CFU/mL. Growth and sterility controls were performed for each experiment and for each replicate. Finally, the plates were incubated at 37 °C in aerobic atmosphere for 24 h. After incubation, plates were read by unaided eye with a microtiter reading mirror and then the OD of each well of the plates was measured spectrophotometrically at 620 nm. MIC values were calculated as the arithmetic mean ± SD of the unaided eye reading and the inhibition of growth for each tested dilution was calculated from the OD values (mean ± SD).
# (§5) To evaluate the antimicrobial effect of the two molecules in association, the FIC index was calculated as follows. The MICs of each of the two molecules tested individually and in combination with each other were evaluated and the results have been included in the following formula as reported by Meletiadis et al.: FIC=MICA in combination/MICA+MICB in combination/MICB where MICA was the MIC of the compound UPAR415 and MICA in combination was the MIC of UPAR415 in combination with colistin. MICB was the MIC of colistin and MICB in combination was the MIC of colistin in combination with UPAR415. From the results of the FIC index formula, the antimicrobial activity in combination of the two molecules can be considered: synergistic, additive, indifferent of antagonistic. If the FIC index is ≤ 0.5, the association is synergic; additive if FIC is between 0.5 and 1; indifferent if FIC is between 1 and 4; and antagonistic if FIC is ≥4 [50].
# (§6) Statistical analysis of checkerboard results in comparison with MIC values of colistin alone was performed using the Analysis of Variance (ANOVA) test.
# K. pneumoniae ATCC13883 = assay: Checkerboard assay with colistin, K. pneumoniae; assay type: cell-based, Klebsiella pneumoniae; conditions: for reduction of the MIC of colistin, K. pneumoniae: association of colistin with compound; for MIC Colistin K. pneumoniae: colistin in combination with compound at 8 μg/mL
# Experimental: as §4, §5, §6
# [1] = compound at 8 μg/mL with colistin
# T1 sequence (P0A1E3 whole entry): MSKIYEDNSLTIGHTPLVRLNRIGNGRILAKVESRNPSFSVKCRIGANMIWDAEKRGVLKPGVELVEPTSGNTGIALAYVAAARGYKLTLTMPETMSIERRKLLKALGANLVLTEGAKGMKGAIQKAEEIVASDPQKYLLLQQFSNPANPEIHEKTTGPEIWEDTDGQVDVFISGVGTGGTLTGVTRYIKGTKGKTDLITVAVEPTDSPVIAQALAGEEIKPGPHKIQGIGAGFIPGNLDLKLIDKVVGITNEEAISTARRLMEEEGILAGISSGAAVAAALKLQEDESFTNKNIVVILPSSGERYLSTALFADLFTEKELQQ
Compound,KD (μM) OASS-A (StOASS-A),Kd (StOASS-A; read-out: KD (μM) OASS-A) [µM],Kd (StOASS-B) [nM],Toxicity on viability of MDBK cells (MDBK cells),MIC (S. Typhimurium ATCC14028) [µg/mL],"fold reduction with respect to the MIC of colistin alone, S. Typhimurium (S. Typhimurium ATCC14028) [fold]",FIC Index S. Typhimurium (S. Typhimurium ATCC14028; [1]),"reduction of the MIC of colistin, K. pneumoniae (K. pneumoniae ATCC13883)",MIC Colistin K. pneumoniae (K. pneumoniae ATCC13883) [µg/mL],FIC Index K. pneumoniae (K. pneumoniae ATCC13883; [1]),"effect on MIC of colistin, K. pneumoniae (K. pneumoniae ATCC13883; compound at 32 and 16 µg/mL)","KD (μM) OASS-B (StOASS-B; 20 °C, 100 mM HEPES, 5% DMSO, pH 7.0, racemic mixture, esters tested up to 100 μM)","MIC Colistin (S. Typhimurium ATCC14028; colistin in combination with 12h at 32 μg/mL, S. Typhimurium ATCC14028 (wild type)) [µg/mL]",FIC Index interpretation S. Typhimurium (S. Typhimurium ATCC14028; [1]),FIC Index interpretation K. pneumoniae (K. pneumoniae ATCC13883; [1])
"Cc1ccc(CC2(C(=O)O)CC2c2cccc(N3CC(C)OC(C)C3)c2)cc1 (stereo not drawn) [Compound 13h, trans-2-(3-(2,6-dimethylmorpholino)phenyl)-1-(4-methylbenzyl)cyclopropanecarboxylic acid]",most potent in vitro activity among the derivatives substituted with heteroaliphatic groups,0.066 ± 0.005,3370 ± 720,lowest toxicity profile,0.468 ± 0.01,2,0.90,has not led to a reduction of the MIC of colistin,3.33 ± 1.0,0.85,only a slight effect,,,,
"CCOC(=O)C1(Cc2ccc(C)cc2)CC1c1cccc(N2CC(C)OC(C)C2)c1 (stereo not drawn) [Compound 12h, trans-ethyl 2-(3-(2,6-dimethylmorpholino)phenyl)-1-(4-methylbenzyl)cyclopropanecarboxylate]",No binding,,,lowest toxicity profile,0.101 ± 0.07,5,0.21,has not led to a reduction of the MIC of colistin,8.00 ± 0.0,2.01,,No binding,0.125 ± 0.08,"synergy (If the FIC index is ≤ 0.5, the association is synergic)",indifference (indifferent if FIC is between 1 and 4)
